# Where two headings read alike, the source gives them in different places.
# Assays:
# [1] = system: Rhizopus oryzae environemental strain; assay: Antifungal susceptibility testing, M38-A microdilution method (filamentous fungi); type: cell-based; settings: Rhizopus arrhizus, read-out: % of growth inhibition
# Description: (§1) Cabanillasin activity was tested against different fungal human pathogens: ascomycetes yeasts (Candida albicans ATCC 90029, Candida Glabrata ATCC 90030, Candida krusei ATCC 6258 and Candida lusitaniae CBS 6936), basidiomycetes yeasts (Cryptococcus neoformans clinical strain), ascomycetes filamentous fungi (Aspergilus fumigatus clinical strain, Fusarium oxysporum clinical strain) and zygomycetes filamentous fungi (Rhizopus oryzae environemental strain) by the M38-A microdilution method with RPMI 1640 medium (RPMI 1640, MOPS 160 mM, glucose 18 g/L, pH 7) as recommended in the […]. The NCCLS M27-A2 broth microdilution method (NCCLS) was used when yeasts were tested.
# (§2) Yeasts and filamentous inoculi were prepared on YPD medium (yeast extract 10 g/L, peptone 10 g/L and glucose 20 g/L) and Malt medium (malt extract 20 g/L) respectively. The densities of inoculi were adjusted by dilution in RPMI 1640 broth to a value ranged from 5.10^2 to 5.10^3 CFU/mL for yeasts isolates and 5.10^3 to 5.10^4 CFU/mL for filamentous fungi. Microdilution trays (96 U-bottom shaped) containing 190 µL fungal inoculum were added with 10 µL Cabanillasin solution (final concentration ranging from 50 to 0.098 mg/L for all fungi). After inoculation of the trays, all microdilution trays were incubated at 35°C in ambient air. The culture absorbance was measured at 600 nm, 24 h and 48 h after the beginning of the experiments for the yeasts and 48 h and 72 h after the beginning of the experiments for filamentous fungi and Cryptococcus neoformans. The activity results correspond to a percentage of growth inhibition ((1-Abs600 nm culture with Cabanillasin)/ Abs600 nm culture without Cabanillasin) x 100.
# (§3) The IC50 value is the concentration at which inhibition of growth is equal to 50%. MICs for Candida species were determined at 24 h and 48 h and corresponded to 100% of growth inhibition. Amphotericin B was provided as standard (final concentration ranging from 16 to 0.03 mg/L for all fungi). Experiments were done in duplicate.
# [2] = system: Fusarium oxysporum clinical strain; assay: as above; type: cell-based; settings: read-out: % of growth inhibition
# Description: as §1, §2, §3
# [3] = system: Candida lusitaniae CBS 6936; assay: Antifungal susceptibility testing, NCCLS M27-A2 broth microdilution (yeasts); type: cell-based; settings: Clavispora lusitaniae, CBS6936, read-out: % of growth inhibition
# Description: as §1, §2, §3
# [4] = system: Candida albicans ATCC 90029; assay: as above; type: cell-based; settings: read-out: % of growth inhibition; for inhibition at 0.03 µg/mL: ATCC90029, 0.03 µg/mL; for inhibition at 0.06 µg/mL: ATCC90029, 0.06 µg/mL; for inhibition at 0.12 µg/mL: ATCC90029, 0.12 µg/mL; for inhibition at 0.25 µg/mL: ATCC90029, 0.25 µg/mL; for inhibition at 0.5 µg/mL: ATCC90029, 0.5 µg/mL; for inhibition at 1 µg/mL: ATCC90029, 1 µg/mL; for inhibition at 2 µg/mL: ATCC90029, 2 µg/mL; for inhibition at 4 µg/mL: ATCC90029, 4 µg/mL; for inhibition at 8 µg/mL: ATCC90029, 8 µg/mL; for inhibition at 16 µg/mL: ATCC90029, 16 µg/mL
# Description: as §1, §2, §3
# [5] = system: Aspergilus fumigatus clinical strain; assay: Antifungal susceptibility testing, M38-A microdilution method (filamentous fungi); type: cell-based, Aspergillus fumigatus; settings: Aspergillus fumigatus, read-out: % of growth inhibition
# Description: as §1, §2, §3
compound,measurement,setting,value
"C[C@@H]1[C@H](O)[C@@H](C)/C=C/C=C/C=C/C=C/C=C/C=C/C=C/[C@H](O[C@@H]2O[C@H](C)[C@@H](O)[C@H](N)[C@@H]2O)C[C@@H]2O[C@](O)(C[C@@H](O)C[C@@H](O)[C@H](O)CC[C@@H](O)C[C@@H](O)CC(=O)O[C@H]1C)C[C@H](O)[C@H]2C(=O)O [Amphotericin B, reference compound]",inhibition at 0.03 µg/mL,[1]; 48 h incubation,26.7%
same,inhibition at 0.03 µg/mL,[1]; 72 h incubation,0%
same,inhibition at 0.06 µg/mL,[1]; 48 h incubation,35%
same,inhibition at 0.06 µg/mL,[1]; 72 h incubation,0%
same,inhibition at 0.12 µg/mL,[1]; 48 h incubation,22%
same,inhibition at 0.12 µg/mL,[1]; 72 h incubation,0%
same,inhibition at 0.25 µg/mL,[1]; 48 h incubation,43.9%
same,inhibition at 0.25 µg/mL,[1]; 72 h incubation,12%
same,inhibition at 0.5 µg/mL,[1]; 48 h incubation,47.4%
same,inhibition at 0.5 µg/mL,[1]; 72 h incubation,62.1%
same,inhibition at 1 µg/mL,[1]; 48 h incubation,92.2%
same,inhibition at 1 µg/mL,[1]; 72 h incubation,66%
same,inhibition at 2 µg/mL,[1]; 48 h incubation,100%
same,inhibition at 2 µg/mL,[1]; 72 h incubation,77.4%
same,inhibition at 4 µg/mL,[1]; 48 h incubation,100%
same,inhibition at 4 µg/mL,[1]; 72 h incubation,100%
same,inhibition at 8 µg/mL,[1]; 48 h incubation,100%
same,inhibition at 8 µg/mL,[1]; 72 h incubation,100%
same,inhibition at 16 µg/mL,[1]; 48 h incubation,100%
same,inhibition at 16 µg/mL,[1]; 72 h incubation,100%
same,inhibition at 0.03 µg/mL,[2]; 48 h incubation,14%
same,inhibition at 0.03 µg/mL,[2]; 72 h incubation,0%
same,inhibition at 0.06 µg/mL,[2]; 48 h incubation,26.3%
same,inhibition at 0.06 µg/mL,[2]; 72 h incubation,0%
same,inhibition at 0.12 µg/mL,[2]; 48 h incubation,39.8%
same,inhibition at 0.12 µg/mL,[2]; 72 h incubation,24.6%
same,inhibition at 0.25 µg/mL,[2]; 48 h incubation,65.2%
same,inhibition at 0.25 µg/mL,[2]; 72 h incubation,49.8%
same,inhibition at 0.5 µg/mL,[2]; 48 h incubation,100%
same,inhibition at 0.5 µg/mL,[2]; 72 h incubation,90.2%
same,inhibition at 1 µg/mL,[2]; 48 h incubation,100%
same,inhibition at 1 µg/mL,[2]; 72 h incubation,100%
same,inhibition at 2 µg/mL,[2]; 48 h incubation,100%
same,inhibition at 2 µg/mL,[2]; 72 h incubation,100%
same,inhibition at 4 µg/mL,[2]; 48 h incubation,100%
same,inhibition at 4 µg/mL,[2]; 72 h incubation,100%
same,inhibition at 8 µg/mL,[2]; 48 h incubation,100%
same,inhibition at 8 µg/mL,[2]; 72 h incubation,100%
same,inhibition at 16 µg/mL,[2]; 48 h incubation,100%
same,inhibition at 16 µg/mL,[2]; 72 h incubation,100%
same,inhibition at 0.03 µg/mL,[3]; 24 h incubation,19%
same,inhibition at 0.03 µg/mL,[3]; 48 h incubation,11.2%
same,inhibition at 0.06 µg/mL,[3]; 24 h incubation,63%
same,inhibition at 0.06 µg/mL,[3]; 48 h incubation,45.4%
same,inhibition at 0.12 µg/mL,[3]; 24 h incubation,100%
same,inhibition at 0.12 µg/mL,[3]; 48 h incubation,84.5%
same,inhibition at 0.25 µg/mL,[3]; 24 h incubation,100%
same,inhibition at 0.25 µg/mL,[3]; 48 h incubation,100%
same,inhibition at 0.5 µg/mL,[3]; 24 h incubation,100%
same,inhibition at 0.5 µg/mL,[3]; 48 h incubation,100%
same,inhibition at 1 µg/mL,[3]; 24 h incubation,100%
same,inhibition at 1 µg/mL,[3]; 48 h incubation,100%
same,inhibition at 2 µg/mL,[3]; 24 h incubation,100%
same,inhibition at 2 µg/mL,[3]; 48 h incubation,100%
same,inhibition at 4 µg/mL,[3]; 24 h incubation,100%
same,inhibition at 4 µg/mL,[3]; 48 h incubation,100%
same,inhibition at 8 µg/mL,[3]; 24 h incubation,100%
same,inhibition at 8 µg/mL,[3]; 48 h incubation,100%
same,inhibition at 16 µg/mL,[3]; 24 h incubation,100%
same,inhibition at 16 µg/mL,[3]; 48 h incubation,100%
same,inhibition at 0.03 µg/mL,[4]; 24 h incubation,30.3%
same,inhibition at 0.03 µg/mL,[4]; 48 h incubation,17%
same,inhibition at 0.06 µg/mL,[4]; 24 h incubation,56.7%
same,inhibition at 0.06 µg/mL,[4]; 48 h incubation,32%
same,inhibition at 0.12 µg/mL,[4]; 24 h incubation,95.2%
same,inhibition at 0.12 µg/mL,[4]; 48 h incubation,70%
same,inhibition at 0.25 µg/mL,[4]; 24 h incubation,100%
same,inhibition at 0.25 µg/mL,[4]; 48 h incubation,100%
same,inhibition at 0.5 µg/mL,[4]; 24 h incubation,100%
same,inhibition at 0.5 µg/mL,[4]; 48 h incubation,100%
same,inhibition at 1 µg/mL,[4]; 24 h incubation,100%
same,inhibition at 1 µg/mL,[4]; 48 h incubation,100%
same,inhibition at 2 µg/mL,[4]; 24 h incubation,100%
same,inhibition at 2 µg/mL,[4]; 48 h incubation,100%
same,inhibition at 4 µg/mL,[4]; 24 h incubation,100%
same,inhibition at 4 µg/mL,[4]; 48 h incubation,100%
same,inhibition at 8 µg/mL,[4]; 24 h incubation,100%
same,inhibition at 8 µg/mL,[4]; 48 h incubation,100%
same,inhibition at 16 µg/mL,[4]; 24 h incubation,100%
same,inhibition at 16 µg/mL,[4]; 48 h incubation,100%
same,inhibition at 0.03 µg/mL,[5]; 48 h incubation,3%
same,inhibition at 0.03 µg/mL,[5]; 72 h incubation,0%
same,inhibition at 0.06 µg/mL,[5]; 48 h incubation,33.5%
same,inhibition at 0.06 µg/mL,[5]; 72 h incubation,0%
same,inhibition at 0.12 µg/mL,[5]; 48 h incubation,37.2%
same,inhibition at 0.12 µg/mL,[5]; 72 h incubation,41.5%
same,inhibition at 0.25 µg/mL,[5]; 48 h incubation,100%
same,inhibition at 0.25 µg/mL,[5]; 72 h incubation,85.2%
same,inhibition at 0.5 µg/mL,[5]; 48 h incubation,100%
same,inhibition at 0.5 µg/mL,[5]; 72 h incubation,100%
same,inhibition at 1 µg/mL,[5]; 48 h incubation,100%
same,inhibition at 1 µg/mL,[5]; 72 h incubation,100%
same,inhibition at 2 µg/mL,[5]; 48 h incubation,100%
same,inhibition at 2 µg/mL,[5]; 72 h incubation,100%
same,inhibition at 4 µg/mL,[5]; 48 h incubation,100%
same,inhibition at 4 µg/mL,[5]; 72 h incubation,100%
same,inhibition at 8 µg/mL,[5]; 48 h incubation,100%
same,inhibition at 8 µg/mL,[5]; 72 h incubation,100%
same,inhibition at 16 µg/mL,[5]; 48 h incubation,100%
same,inhibition at 16 µg/mL,[5]; 72 h incubation,100%
